The target in data set [1] is recombinant human Estrogen Receptor alpha ligand binding domain (ER alpha-LBD (GST)) (Homo sapiens (Human), UniProt P03372). Kind of data set: ERα binding assay (LanthaScreen TR-FRET competition). A general note: TR-FRET usually uses a lanthanide donor and a delayed reading to cut background.
Data set [2] has as its target Estrogen Receptor (ERα) in MCF-7 cells (Homo sapiens (Human), UniProt P03372). Kind of data set: MCF-7 ER down-regulation assay (immuno-fluorescence). It counts as cell-based. The following applies: for % downregulation (in brackets): maximum downregulation.
A short description of data set [3]: Log D (shake flask, 1-octanol/aqueous buffer). The conditions noted are these: 1-octanol/aqueous buffer, pH 7.4, pH 7.4. It counts as physicochemical.
The nature of data set [4]: Thermodynamic solubility (shake-flask). The conditions noted are these: aqueous phosphate buffer, 25 °C, pH 7.4, aqueous buffer, thermodynamic from solid, phosphate buffer pH 7.4, 24 hours. It counts as physicochemical.
Data set [5] is described as follows: Human plasma protein binding (equilibrium dialysis). It counts as in vitro ADME. (In general: In equilibrium dialysis free small molecules cross a membrane that holds back macromolecules.)
The next data set addresses hERG potassium channel (Homo sapiens (Human), UniProt Q12809).

Each structure is given as a SMILES string. In brackets after ≈: the same amount, converted by molar mass.

The values that follow come from patent US10221173B2, “Chemical compounds” (AstraZeneca AB, priority 2017, dated 2019).

Sequence of hERG potassium channel (Q12809 whole entry): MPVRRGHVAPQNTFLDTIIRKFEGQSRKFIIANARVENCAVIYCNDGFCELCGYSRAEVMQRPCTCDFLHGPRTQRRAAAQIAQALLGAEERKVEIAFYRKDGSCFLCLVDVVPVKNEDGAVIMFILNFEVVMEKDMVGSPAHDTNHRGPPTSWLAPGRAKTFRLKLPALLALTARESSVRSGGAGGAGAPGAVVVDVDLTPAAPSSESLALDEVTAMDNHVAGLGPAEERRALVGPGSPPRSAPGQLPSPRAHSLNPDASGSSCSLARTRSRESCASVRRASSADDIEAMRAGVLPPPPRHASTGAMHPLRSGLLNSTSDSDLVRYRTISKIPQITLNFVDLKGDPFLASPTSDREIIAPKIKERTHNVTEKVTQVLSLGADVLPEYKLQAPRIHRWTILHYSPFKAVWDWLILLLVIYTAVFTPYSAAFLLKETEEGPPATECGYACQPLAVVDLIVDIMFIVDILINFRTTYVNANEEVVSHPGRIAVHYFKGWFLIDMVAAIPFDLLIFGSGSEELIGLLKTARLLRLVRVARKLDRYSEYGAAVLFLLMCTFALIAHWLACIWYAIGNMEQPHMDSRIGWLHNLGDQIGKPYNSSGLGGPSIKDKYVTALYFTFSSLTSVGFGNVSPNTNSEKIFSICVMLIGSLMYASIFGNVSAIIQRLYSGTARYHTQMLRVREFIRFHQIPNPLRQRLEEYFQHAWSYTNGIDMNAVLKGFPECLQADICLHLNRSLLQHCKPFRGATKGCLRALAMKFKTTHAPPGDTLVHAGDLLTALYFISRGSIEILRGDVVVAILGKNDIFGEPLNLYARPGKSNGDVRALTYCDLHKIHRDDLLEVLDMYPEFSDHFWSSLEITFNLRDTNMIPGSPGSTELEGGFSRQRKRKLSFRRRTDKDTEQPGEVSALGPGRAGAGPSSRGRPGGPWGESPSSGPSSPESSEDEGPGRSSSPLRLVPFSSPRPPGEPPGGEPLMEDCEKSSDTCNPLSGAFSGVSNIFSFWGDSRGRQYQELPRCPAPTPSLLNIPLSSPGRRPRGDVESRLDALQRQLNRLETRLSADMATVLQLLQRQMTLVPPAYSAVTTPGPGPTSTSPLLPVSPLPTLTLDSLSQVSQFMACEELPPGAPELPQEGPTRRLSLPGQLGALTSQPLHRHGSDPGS
Sequence of recombinant human Estrogen Receptor alpha ligand binding domain (ER alpha-LBD (GST)) (P03372 307-554): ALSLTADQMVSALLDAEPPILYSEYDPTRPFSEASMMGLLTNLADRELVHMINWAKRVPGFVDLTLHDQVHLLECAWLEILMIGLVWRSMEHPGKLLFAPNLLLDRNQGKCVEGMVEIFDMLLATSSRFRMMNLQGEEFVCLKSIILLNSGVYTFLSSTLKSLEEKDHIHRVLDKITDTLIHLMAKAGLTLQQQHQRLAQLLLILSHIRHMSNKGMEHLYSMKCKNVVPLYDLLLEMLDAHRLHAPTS
Sequence of Estrogen Receptor (ERα) in MCF-7 cells (P03372 whole entry): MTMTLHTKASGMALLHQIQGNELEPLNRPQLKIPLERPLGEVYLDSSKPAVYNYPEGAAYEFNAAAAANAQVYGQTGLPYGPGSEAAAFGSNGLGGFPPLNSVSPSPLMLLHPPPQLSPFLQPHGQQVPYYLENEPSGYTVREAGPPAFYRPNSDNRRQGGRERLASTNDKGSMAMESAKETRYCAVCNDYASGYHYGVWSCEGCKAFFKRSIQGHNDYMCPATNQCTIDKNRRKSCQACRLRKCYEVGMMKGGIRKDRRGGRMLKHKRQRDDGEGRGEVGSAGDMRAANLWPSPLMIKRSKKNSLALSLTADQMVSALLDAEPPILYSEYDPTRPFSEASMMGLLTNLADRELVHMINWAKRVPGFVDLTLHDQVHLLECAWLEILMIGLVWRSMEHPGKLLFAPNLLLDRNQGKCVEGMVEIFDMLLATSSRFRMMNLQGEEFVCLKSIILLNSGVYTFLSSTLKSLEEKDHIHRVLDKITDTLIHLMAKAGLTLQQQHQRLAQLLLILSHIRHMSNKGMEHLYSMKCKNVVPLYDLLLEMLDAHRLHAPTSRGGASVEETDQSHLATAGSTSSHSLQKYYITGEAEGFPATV

`COc1ccc(OCCNCCCF)c(F)c1[C@@H]1c2[nH]c3ccc(F)cc3c2C[C@@H](C)N1CC(F)(F)CO` [Example 86, 2,2-difluoro-3-((1R,3R)-6-fluoro-1-(2-fluoro-3-(2-((3-fluoropropyl)amino)ethoxy)-6-methoxyphenyl)-3-methyl-1,3,4,9-tetrahydro-2H-pyrido[3,4-b]indol-2-yl)propan-1-ol]: the IC50 (as a rule, the concentration needed to halve the response being measured) is 0.86 nM in data set [1], 0.17 nM in data set [2] and 3900 nM on hERG potassium channel. In data set [3], the pH-dependent lipophilicity (logD) (as a rule, the decadic logarithm of the distribution of all forms, ionised or not, between an organic phase and buffer at a given pH) stood at 2.9. Further, in data set [4], the solubility (in general, how much of the substance goes into solution per volume) at 24 h amounted to 385 µM (≈ 209 µg/mL). The “Human plasma protein binding (% free)” value in data set [5] was 2.6 % free.
In the case of `C[C@@H]1Cc2c([nH]c3ccc(F)cc23)[C@@H](c2c(F)ccc(NCCNCCCF)c2F)N1CC(F)(F)CO` [Example 89, 3-((1R,3R)-1-(2,6-difluoro-3-((2-((3-fluoropropyl)amino)ethyl)amino)phenyl)-6-fluoro-3-methyl-1,3,4,9-tetrahydro-2H-pyrido[3,4-b]indol-2-yl)-2,2-difluoropropan-1-ol], the IC50 turned out to be 0.91 nM in data set [1], 0.14 nM in data set [2] and 6100 nM at hERG potassium channel. This compound also came in with a logD in data set [3] of 2.7. Also, the solubility at 24 h in data set [4] turned out to be 670 µM (≈ 354 µg/mL). Moreover, the “Human plasma protein binding (% free)” value in data set [5] is below 3.4 % free.
As to `COc1cc(F)c(NCCNCCCF)cc1[C@@H]1c2[nH]c3ccccc3c2C[C@@H](C)N1CC(F)(F)F` [Example 91, N1-(2-fluoro-4-methoxy-5-((1R,3R)-3-methyl-2-(2,2,2-trifluoroethyl)-2,3,4,9-tetrahydro-1H-pyrido[3,4-b]indol-1-yl)phenyl)-N2-(3-fluoropropyl)ethane-1,2-diamine], the IC50 in data set [1] turned out to be 9.4 nM; in data set [2], 15 nM; at hERG potassium channel, 2600 nM. The logD in data set [3] was 2.9. In addition, the solubility at 24 h in data set [4] was determined as 280 µM (≈ 143 µg/mL). Further, the “Human plasma protein binding (% free)” value in data set [5] was found to be 0.93 % free.
`C[C@@H]1Cc2c([nH]c3ccccc23)[C@@H](c2nccc(NCCNCCCF)c2F)N1CC(F)(F)F` [Example 94, N1-(3-fluoro-2-((1S,3R)-3-methyl-2-(2,2,2-trifluoroethyl)-2,3,4,9-tetrahydro-1H-pyrido[3,4-b]indol-1-yl)pyridin-4-yl)-N2-(3-fluoropropyl)ethane-1,2-diamine]: the results for the IC50 (in data set [1]; in data set [2]; at hERG potassium channel) were 3.6 nM, 9.2 nM and 9900 nM, respectively. In data set [3], the logD came to 2.4. Moreover, the solubility at 24 h in data set [4] is 698 µM (≈ 336 µg/mL). Further, in data set [5], the “Human plasma protein binding (% free)” value stood at 7 % free.
Turning to `Cc1c(NCCNCCCF)ccnc1[C@@H]1c2[nH]c3ccccc3c2C[C@@H](C)N1CC(F)(F)F` [Example 95, N1-(3-fluoropropyl)-N2-(3-methyl-2-((1S,3R)-3-methyl-2-(2,2,2-trifluoroethyl)-2,3,4,9-tetrahydro-1H-pyrido[3,4-b]indol-1-yl)pyridin-4-yl)ethane-1,2-diamine], the IC50 was found to be 5.6 nM in data set [1], 3.3 nM in data set [2] and 7200 nM on hERG potassium channel. In addition, the logD in data set [3] came to 2.5. Moreover, the solubility at 24 h in data set [4] came to 869 µM (≈ 415 µg/mL). The “Human plasma protein binding (% free)” value in data set [5] came out at 4.6 % free.
Regarding `C[C@@H]1Cc2c([nH]c3ccccc23)[C@@H](c2ccnc(OCCNCCCF)c2)N1CC(F)(F)F` [Example 102, 3-fluoro-N-(2-((4-((1R,3R)-3-methyl-2-(2,2,2-trifluoroethyl)-2,3,4,9-tetrahydro-1H-pyrido[3,4-b]indol-1-yl)pyridin-2-yl)oxy)ethyl)propan-1-amine], the results for the IC50 (in data set [1]; in data set [2]; on hERG potassium channel) were 2 nM, 2.9 nM and 7200 nM, respectively. The logD in data set [3] was found to be 3.8. In data set [4], the solubility at 24 h was found to be 251 µM (≈ 117 µg/mL). Also, in data set [5], the “Human plasma protein binding (% free)” value is given as 1.4 % free.
On to `Cc1c([C@@H]2c3[nH]c4ccccc4c3C[C@@H](C)N2CC(F)(F)CO)ccnc1OCCNCCCF` [Example 103, 2,2-difluoro-3-((1R,3R)-1-(2-(2-((3-fluoropropyl)amino)ethoxy)-3-methylpyridin-4-yl)-3-methyl-1,3,4,9-tetrahydro-2H-pyrido[3,4-b]indol-2-yl)propan-1-ol], for which the IC50 in data set [1] worked out at 0.56 nM; in data set [2] it was 0.084 nM; at hERG potassium channel it was 4300 nM. The compound also had a logD in data set [3] of 2.9. Further, the solubility at 24 h in data set [4] turned out to be 660 µM (≈ 324 µg/mL). Moreover, in data set [5], the “Human plasma protein binding (% free)” value is on record as 2 % free.
In the case of `Cc1ccc(OCCNCCCF)nc1[C@@H]1c2[nH]c3ccccc3c2C[C@@H](C)N1CC(F)(F)F` [Example 105, 3-fluoro-N-(2-((5-methyl-6-((1S,3R)-3-methyl-2-(2,2,2-trifluoroethyl)-2,3,4,9-tetrahydro-1H-pyrido[3,4-b]indol-1-yl)pyridin-2-yl)oxy)ethyl)propan-1-amine], the IC50 was 42 nM in data set [1], 39 nM in data set [2] and 3500 nM at hERG potassium channel. In addition, the logD in data set [3] was 3.4. In data set [4], the solubility at 24 h was found to be 136 µM (≈ 65.1 µg/mL). The “Human plasma protein binding (% free)” value in data set [5] stood at 1 % free.
Turning to `C[C@@H]1Cc2c([nH]c3ccccc23)[C@@H](c2c(F)cnc(OCCNCCCF)c2F)N1CC1(F)CC1` [Example 108, N-(2-((3,5-difluoro-4-((1R,3R)-2-((1-fluorocyclopropyl)methyl)-3-methyl-2,3,4,9-tetrahydro-1H-pyrido[3,4-b]indol-1-yl)pyridin-2-yl)oxy)ethyl)-3-fluoropropan-1-amine], the IC50 was determined as 1 nM in data set [1], 0.3 nM in data set [2] and 6000 nM on hERG potassium channel. Besides, the logD in data set [3] is 3.2. The compound further gave a solubility at 24 h in data set [4] of 375 µM (≈ 184 µg/mL). Besides, the “Human plasma protein binding (% free)” value in data set [5] is on record as 2.3 % free.
For `COc1nnc(OCCNCCCF)cc1[C@@H]1c2[nH]c3ccccc3c2C[C@@H](C)N1CC(F)(F)F` [Example 112, 3-fluoro-N-(2-((6-methoxy-5-((1R,3R)-3-methyl-2-(2,2,2-trifluoroethyl)-2,3,4,9-tetrahydro-1H-pyrido[3,4-b]indol-1-yl)pyridazin-3-yl)oxy)ethyl)propan-1-amine], the IC50 worked out at 2 nM in data set [1], 0.95 nM in data set [2] and 19000 nM at hERG potassium channel. In data set [3], this compound returned a logD of 3.2. In addition, in data set [4], the solubility at 24 h was determined as 92 µM (≈ 45.6 µg/mL). Moreover, in data set [5], the “Human plasma protein binding (% free)” value was 1.5 % free.
In the case of `Cc1c(OCCNCCCF)ncnc1[C@@H]1c2[nH]c3ccccc3c2C[C@@H](C)N1CC(F)(F)F` [Example 114, 3-fluoro-N-(2-((5-methyl-6-((1S,3R)-3-methyl-2-(2,2,2-trifluoroethyl)-2,3,4,9-tetrahydro-1H-pyrido[3,4-b]indol-1-yl)pyrimidin-4-yl)oxy)ethyl)propan-1-amine], the IC50 amounted to 0.74 nM in data set [1], 0.2 nM in data set [2] and 5900 nM on hERG potassium channel. Further, the logD in data set [3] worked out at 3.3. This compound had a solubility at 24 h in data set [4] of 276 µM (≈ 132 µg/mL). Further, the “Human plasma protein binding (% free)” value in data set [5] was 1.7 % free.
On to `C[C@@H]1Cc2c([nH]c3ccccc23)[C@@H](c2c(Cl)ccc(OCCNCCCF)c2Cl)N1C[C@H](C)C(=O)O` [Example 128, (S)-3-((1R,3R)-1-(2,6-dichloro-3-(2-((3-fluoropropyl)amino)ethoxy)phenyl)-3-methyl-1,3,4,9-tetrahydro-2H-pyrido[3,4-b]indol-2-yl)-2-methylpropanoic acid], for which the figures for the IC50 (in data set [1]; in data set [2]; at hERG potassium channel) were 3.4 nM, 1.1 nM and above 40000 nM, respectively. Further, the logD in data set [3] was 1. The compound also returned a solubility at 24 h in data set [4] of 973 µM (≈ 522 µg/mL). In addition, the “Human plasma protein binding (% free)” value in data set [5] is reported as 15 % free.
With `Cc1c([C@@H]2c3[nH]c4ccccc4c3C[C@@H](C)N2C[C@H](C)C(=O)O)ccnc1OCCNCCCF` [Example 132, (S)-3-((1R,3R)-1-(2-(2-((3-fluoropropyl)amino)ethoxy)-3-methylpyridin-4-yl)-3-methyl-1,3,4,9-tetrahydro-2H-pyrido[3,4-b]indol-2-yl)-2-methylpropanoic acid], the IC50 in data set [1] is 2 nM; in data set [2] it was 0.98 nM; against hERG potassium channel it was above 40000 nM. In addition, the logD in data set [3] came to 0.6. For the same compound, the solubility at 24 h in data set [4] amounted to 914 µM (≈ 441 µg/mL). Moreover, in data set [5], the “Human plasma protein binding (% free)” value was 34 % free.
As to `Cc1c(OCCN(C)CCCF)ccc(F)c1[C@@H]1c2[nH]c3ccccc3c2C[C@@H](C(F)(F)F)N1C[C@H](C)C(=O)O` [Example 149, (S)-3-((1R,3S)-1-(6-fluoro-3-(2-((3-fluoropropyl)(methyl)amino)ethoxy)-2-methylphenyl)-3-(trifluoromethyl)-1,3,4,9-tetrahydro-2H-pyrido[3,4-b]indol-2-yl)-2-methylpropanoic acid], the figures for the IC50 (in data set [1]; in data set [2]; at hERG potassium channel) were 1.5 nM, 0.85 nM and above 40000 nM, respectively. For the same compound, the “% downregulation (in brackets)” value in data set [2] was 86%. Further, the logD in data set [3] was 2.2. The compound further yielded a solubility at 24 h in data set [4] of 523 µM (≈ 297 µg/mL). For the same compound, the “Human plasma protein binding (% free)” value in data set [5] is 5.3 % free.
For `C[C@@H]1Cc2c([nH]c3ccccc23)[C@@H](c2c(F)ccc(OCCN(C)CCCF)c2F)N1CC1(F)COC1` [Example 154, N-(2-(2,4-difluoro-3-((1R,3R)-2-((3-fluorooxetan-3-yl)methyl)-3-methyl-2,3,4,9-tetrahydro-1H-pyrido[3,4-b]indol-1-yl)phenoxy)ethyl)-3-fluoro-N-methylpropan-1-amine], the IC50 in data set [1] is 1.2 nM; in data set [2] it was 0.89 nM; at hERG potassium channel, 4300 nM. Besides, in data set [2], the “% downregulation (in brackets)” value is 79%. Further, in data set [3], the logD is 3.5. Moreover, in data set [4], the solubility at 24 h was found to be 49 µM (≈ 25.5 µg/mL). Further, the “Human plasma protein binding (% free)” value in data set [5] amounted to 2.7 % free.
